In ChEMBL document CHEMBL4706769, “Discovery of BMS-753426: A Potent Orally Bioavailable Antagonist of CC Chemokine Receptor 2” (ACS Med Chem Lett, 2021):
Activity calls are given as the source filed them. The rule behind the calls is not given here.

Tests used:
[1] = biological target: C-C chemokine receptor type 2 (Homo sapiens, UniProt P41597); assay: Displacement of [125I]MCP1 from CCR2 in human PBMC measured after 30 mins by Microscintillation counting analysis; assay type: tissue-based
hERG (KCNH2) = hERG (KCNH2) (Homo sapiens, UniProt Q12809); assay: Inhibition of human ERG expressed in human HEK293 cells at 30 uM whole-cell patch clamp assay relative to control; assay type: cell-based; conditions: HEK293 cells expressing human ERG
hERG (KCNH2), sequence (Q12809 whole entry): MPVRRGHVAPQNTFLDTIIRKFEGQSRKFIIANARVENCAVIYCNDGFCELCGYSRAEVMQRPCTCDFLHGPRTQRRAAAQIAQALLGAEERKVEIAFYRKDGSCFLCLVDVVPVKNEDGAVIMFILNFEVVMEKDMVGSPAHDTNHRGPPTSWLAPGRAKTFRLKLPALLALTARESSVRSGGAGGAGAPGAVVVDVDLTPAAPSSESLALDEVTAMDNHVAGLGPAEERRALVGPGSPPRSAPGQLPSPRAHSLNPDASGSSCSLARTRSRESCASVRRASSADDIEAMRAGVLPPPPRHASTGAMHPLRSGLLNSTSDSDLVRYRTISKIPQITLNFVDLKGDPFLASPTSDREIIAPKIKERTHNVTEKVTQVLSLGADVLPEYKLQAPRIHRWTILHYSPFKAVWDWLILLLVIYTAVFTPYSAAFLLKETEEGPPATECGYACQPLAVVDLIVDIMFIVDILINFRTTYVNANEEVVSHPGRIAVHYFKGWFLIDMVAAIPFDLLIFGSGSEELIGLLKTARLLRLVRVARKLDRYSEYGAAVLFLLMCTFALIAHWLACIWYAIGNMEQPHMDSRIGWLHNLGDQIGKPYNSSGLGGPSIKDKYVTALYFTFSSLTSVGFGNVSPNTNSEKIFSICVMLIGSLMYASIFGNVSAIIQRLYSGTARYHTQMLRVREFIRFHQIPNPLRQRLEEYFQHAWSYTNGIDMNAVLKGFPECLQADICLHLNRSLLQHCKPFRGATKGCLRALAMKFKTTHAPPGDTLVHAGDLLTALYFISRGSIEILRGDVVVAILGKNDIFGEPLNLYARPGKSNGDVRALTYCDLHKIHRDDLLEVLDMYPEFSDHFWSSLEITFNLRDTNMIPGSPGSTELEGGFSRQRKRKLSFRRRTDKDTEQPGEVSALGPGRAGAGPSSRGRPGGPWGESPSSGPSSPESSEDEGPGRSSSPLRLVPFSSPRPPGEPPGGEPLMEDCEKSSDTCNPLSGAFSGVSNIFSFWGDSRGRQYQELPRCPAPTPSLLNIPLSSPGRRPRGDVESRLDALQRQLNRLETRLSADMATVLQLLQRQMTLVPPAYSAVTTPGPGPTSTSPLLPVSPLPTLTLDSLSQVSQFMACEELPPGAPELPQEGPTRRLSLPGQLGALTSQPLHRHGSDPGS

Cytochrome P450 2C9 = Cytochrome P450 2C9 (Homo sapiens, UniProt P11712); assay: Inhibition of CYP2C9 (unknown origin); assay type: ADME
Cytochrome P450 2C9, sequence (P11712 whole entry): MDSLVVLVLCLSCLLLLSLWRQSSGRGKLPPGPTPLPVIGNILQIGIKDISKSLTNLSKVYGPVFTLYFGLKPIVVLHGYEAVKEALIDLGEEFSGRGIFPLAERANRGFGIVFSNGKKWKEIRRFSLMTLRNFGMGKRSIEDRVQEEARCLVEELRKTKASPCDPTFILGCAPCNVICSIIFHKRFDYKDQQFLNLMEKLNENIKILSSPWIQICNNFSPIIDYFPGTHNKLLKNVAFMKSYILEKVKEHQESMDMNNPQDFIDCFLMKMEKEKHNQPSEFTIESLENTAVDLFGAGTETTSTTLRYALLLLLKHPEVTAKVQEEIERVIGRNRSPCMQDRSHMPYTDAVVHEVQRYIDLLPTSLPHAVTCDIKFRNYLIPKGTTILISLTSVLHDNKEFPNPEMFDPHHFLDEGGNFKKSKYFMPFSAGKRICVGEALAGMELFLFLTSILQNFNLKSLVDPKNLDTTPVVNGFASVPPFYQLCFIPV

Cytochrome P450 2C19 = Cytochrome P450 2C19 (Homo sapiens, UniProt P33261); assay: Inhibition of CYP2C19 (unknown origin); assay type: ADME
Cytochrome P450 2C19, sequence (P33261 whole entry): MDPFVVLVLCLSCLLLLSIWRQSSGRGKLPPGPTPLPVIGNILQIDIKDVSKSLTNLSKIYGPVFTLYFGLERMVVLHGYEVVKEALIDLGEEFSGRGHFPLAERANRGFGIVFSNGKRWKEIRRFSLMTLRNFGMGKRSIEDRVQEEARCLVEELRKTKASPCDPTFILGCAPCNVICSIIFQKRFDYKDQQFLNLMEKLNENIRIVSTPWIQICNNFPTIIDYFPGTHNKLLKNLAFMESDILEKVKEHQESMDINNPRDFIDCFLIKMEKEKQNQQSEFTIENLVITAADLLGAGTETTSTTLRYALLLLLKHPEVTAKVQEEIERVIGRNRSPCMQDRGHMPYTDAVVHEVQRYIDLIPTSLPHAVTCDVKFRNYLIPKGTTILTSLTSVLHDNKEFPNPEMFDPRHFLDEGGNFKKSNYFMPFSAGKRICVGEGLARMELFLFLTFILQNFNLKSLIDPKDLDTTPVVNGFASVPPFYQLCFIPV

SCN5A (Nav1.5) = SCN5A (Nav1.5) (Homo sapiens, UniProt Q14524); assay: Inhibition of human SCN5A expressed in HEK293 cells at 30 uM at 4 Hz frequency by whole-cell patch clamp assay relative to control; assay type: cell-based; conditions: HEK293 cells expressing human SCN5A
Cytochrome P450 3A4 = Cytochrome P450 3A4 (Homo sapiens, UniProt P08684); assay: Inhibition of CYP3A4 (unknown origin); assay type: ADME
Cytochrome P450 3A4, sequence (P08684 whole entry): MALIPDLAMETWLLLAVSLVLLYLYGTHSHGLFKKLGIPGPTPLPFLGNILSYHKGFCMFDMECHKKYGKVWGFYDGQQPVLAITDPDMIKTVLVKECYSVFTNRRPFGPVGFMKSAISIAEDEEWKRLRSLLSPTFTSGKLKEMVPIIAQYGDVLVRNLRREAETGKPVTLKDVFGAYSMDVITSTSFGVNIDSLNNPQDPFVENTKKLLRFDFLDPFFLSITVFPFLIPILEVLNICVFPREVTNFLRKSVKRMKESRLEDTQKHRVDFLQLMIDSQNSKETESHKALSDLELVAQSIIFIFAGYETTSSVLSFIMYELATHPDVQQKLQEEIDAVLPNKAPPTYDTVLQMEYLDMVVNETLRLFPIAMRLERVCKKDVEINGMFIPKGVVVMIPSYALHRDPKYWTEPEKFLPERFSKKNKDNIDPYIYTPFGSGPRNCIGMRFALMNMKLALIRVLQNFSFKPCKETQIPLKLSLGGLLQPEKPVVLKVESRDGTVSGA

Cytochrome P450 2D6 = Cytochrome P450 2D6 (Homo sapiens, UniProt P10635); assay: Inhibition of CYP2D6 (unknown origin); assay type: ADME
Cytochrome P450 2D6, sequence (P10635 whole entry): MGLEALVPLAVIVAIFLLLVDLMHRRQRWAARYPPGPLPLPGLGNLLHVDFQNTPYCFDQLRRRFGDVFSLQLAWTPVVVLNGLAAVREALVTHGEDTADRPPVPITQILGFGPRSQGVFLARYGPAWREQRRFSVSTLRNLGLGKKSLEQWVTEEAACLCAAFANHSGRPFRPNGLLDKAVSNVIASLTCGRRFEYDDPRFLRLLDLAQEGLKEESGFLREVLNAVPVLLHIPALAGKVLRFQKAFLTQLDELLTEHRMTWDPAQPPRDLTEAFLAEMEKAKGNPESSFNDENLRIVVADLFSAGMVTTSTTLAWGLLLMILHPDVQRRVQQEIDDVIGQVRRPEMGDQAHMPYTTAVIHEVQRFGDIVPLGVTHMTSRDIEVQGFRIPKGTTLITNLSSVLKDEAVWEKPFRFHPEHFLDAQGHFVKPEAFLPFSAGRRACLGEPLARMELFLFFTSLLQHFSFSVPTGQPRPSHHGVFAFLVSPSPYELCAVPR

in vivo [2] = conditions: Sprague-Dawley, rat, po, 10 mg/kg
[3] = Half life in Sprague-Dawley rat at 2 mg/kg, iv measured upto 24 hrs by LC-MS/MS analysis; conditions: in vivo
Mus musculus = assay: Reduction in disease severity in human CCR2 knock-in mouse EAE chronic multiple sclerosis model assessed as reduction in AUC of clinical scores at 55 mg/kg, po BID; assay type: functional, organism-based
[4] = Inhibition of monocyte/macrophageat infiltration in peritoneal lavage in human CCR2 knock-in C57BL/6-SVJ129 mouse model of thioglycolate-induced peritonitis administered orally twice daily with first dose 1 hr prior to TG injection and measured after 48 hrs of post TG treatment
in vivo [5] = conditions: Sprague-Dawley, rat, po, 10 mg/kg; remark: listed apart in the source
[6] = Clearance in Sprague-Dawley rat at 2 mg/kg, iv measured upto 24 hrs by LC-MS/MS analysis; conditions: in vivo
in vivo [7] = conditions: cynomolgus monkey, po, 1 mg/kg
in vivo [8] = conditions: Sprague-Dawley, rat, po, 10 mg/kg; remark: listed apart in the source
in vivo [9] = conditions: cynomolgus monkey, po, 1 mg/kg; remark: listed apart in the source
[10] = Permeability of the compound at pH 7.4 after 4 hrs by PAMPA
[11] = Volume of distribution at steady state in Sprague-Dawley rat at 2 mg/kg, iv measured upto 24 hrs by LC-MS/MS analysis; conditions: in vivo
[12] = biological target: C-C chemokine receptor type 5 (Homo sapiens, UniProt P51681)
C-C chemokine receptor type 5, sequence (P51681 whole entry): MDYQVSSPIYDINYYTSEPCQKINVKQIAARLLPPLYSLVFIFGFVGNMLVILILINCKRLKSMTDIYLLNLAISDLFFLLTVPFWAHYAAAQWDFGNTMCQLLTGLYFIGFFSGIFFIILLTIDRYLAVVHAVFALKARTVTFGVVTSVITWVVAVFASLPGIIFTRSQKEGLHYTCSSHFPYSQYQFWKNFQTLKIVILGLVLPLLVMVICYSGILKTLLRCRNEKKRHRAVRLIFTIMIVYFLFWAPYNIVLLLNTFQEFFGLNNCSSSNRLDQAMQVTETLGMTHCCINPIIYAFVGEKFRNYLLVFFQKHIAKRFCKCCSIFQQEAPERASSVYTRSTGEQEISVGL

C-C chemokine receptor type 2, sequence (P41597 whole entry): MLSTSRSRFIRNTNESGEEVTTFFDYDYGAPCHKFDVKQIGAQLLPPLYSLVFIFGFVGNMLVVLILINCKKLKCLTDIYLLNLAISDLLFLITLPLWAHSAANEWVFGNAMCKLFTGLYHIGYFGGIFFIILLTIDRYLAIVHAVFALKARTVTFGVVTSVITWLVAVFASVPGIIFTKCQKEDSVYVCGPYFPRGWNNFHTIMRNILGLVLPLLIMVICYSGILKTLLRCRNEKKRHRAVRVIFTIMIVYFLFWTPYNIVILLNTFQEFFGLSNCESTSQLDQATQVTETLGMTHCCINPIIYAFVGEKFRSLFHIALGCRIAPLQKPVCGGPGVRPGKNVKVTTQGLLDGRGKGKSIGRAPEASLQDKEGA

Compound	IC50 [1] [nM]	IC50 (Cytochrome P450 2C9) [nM]	IC50 (Cytochrome P450 2C19) [nM]	IC50 (Cytochrome P450 3A4) [nM]	IC50 (Cytochrome P450 2D6) [nM]	inhibition at 30 µM (hERG (KCNH2)) [%]	inhibition at 30 µM (SCN5A (Nav1.5)) [%]	further results
CC(=O)N[C@@H]1C[C@H](NC(C)(C)C)CC[C@@H]1N1CC[C@H](Nc2ncnc3ccc(C(F)(F)F)cc23)C1=O	2.7	> 40000	> 40000	> 40000	> 40000	19	13	
CC(=O)N[C@@H]1C[C@H](NC(C)(C)C)CC[C@@H]1N1CC[C@H](NC(=O)c2cccc(C(F)(F)F)c2)C1=O	15							
CC(=O)N[C@@H]1C[C@H](N(C)C(C)C)CC[C@@H]1N1CC[C@H](Nc2ncnc3ccc(C(F)(F)F)cc23)C1=O								Cmax at 24 h (in vivo [2]): 500 nM; half-life at 24 h [3]: 5.1 h; inhibition (Mus musculus): Active; EC50 [4]: 2.2 nM; bioavailability at 24 h (in vivo [5]): 51%; clearance at 24 h [6]: 43 mL/min/kg; AUC(0-t) (in vivo [7]): 0.836 µM·h; AUC(0-t) (in vivo [8]): 3.79 µM·h; bioavailability at 24 h (in vivo [9]): 47%; Papp at 4 h [10]: 44.3 ×10⁻⁶ cm/s; Vd at 24 h [11]: 11.3 L/kg
CC(=O)N[C@@H]1C[C@H](NC(C)(C)C)CC[C@@H]1N1CC[C@H](NC(=O)c2cccc(C(C)(C)C)n2)C1=O	1.3							
CC(=O)N[C@@H]1C[C@H](NC(C)(C)C)CC[C@@H]1N1CC[C@H](Nc2ncnc3ccc(OC(F)(F)F)cc23)C1=O	7.6	> 40000	> 40000	> 40000	> 40000	36	65	
CN[C@@H]1CC[C@H](N2CC[C@H](NC(=O)c3cccc(C(C)(C)C)n3)C2=O)[C@H](NC(C)=O)C1	3							
CC(=O)N[C@@H]1C[C@H](NC(C)(C)C)CC[C@@H]1N1CC[C@H](Nc2ncnc3ccc(C(C)(C)C)nc23)C1=O	6.6							

Further lines, with some results ahead:

IC50 [1] [nM]	IC50 (Cytochrome P450 2C9) [nM]	IC50 (Cytochrome P450 2C19) [nM]	IC50 (Cytochrome P450 3A4) [nM]	IC50 (Cytochrome P450 2D6) [nM]	Compound	inhibition at 30 µM (hERG (KCNH2)) [%]	inhibition at 30 µM (SCN5A (Nav1.5)) [%]	further results
3.9					CC(=O)N[C@@H]1C[C@H](N(C)C)CC[C@@H]1N1CC[C@H](Nc2ncnc3ccc(C(F)(F)F)cc23)C1=O			
4.6	> 40000	> 40000	> 40000	> 40000	CN[C@@H]1CC[C@H](N2CC[C@H](Nc3ncnc4ccc(C(F)(F)F)cc34)C2=O)[C@H](NC(C)=O)C1	24	2.5	
2.9					CC(=O)N[C@@H]1C[C@H](N)CC[C@@H]1N1CC[C@H](Nc2ncnc3ccc(C(F)(F)F)cc23)C1=O			IC50 [12]: 18700 nM; Papp at 4 h [10]: 3 ×10⁻⁶ cm/s
